This note sets out measurements from ChEMBL document CHEMBL1123446, “Amino-substituted p-benzoquinones” (1986).

The species named for one experiment is Homo sapiens. Description: In vitro significant inhibitory activity against human colon […]. Format: functional. To be noted: read-out: ID50 (the source's name).
For the next experiment, the system named is L1210. Kind of experiment: In vitro significant inhibitory activity against L1210 leukemia cell lines. The experiment is classed as functional. To be noted: Mus musculus, read-out: ID50 (the source's name).

Molecules are shown by their SMILES.

In the case of `CN(C)Cc1ccc(NC2=C(Br)C(=O)C(Nc3ccc(CN(C)C)cc3)=C(Br)C2=O)cc1`, in the experiment listed under Homo sapiens, the IC50 was 140 nM.
Consider `CN(C)Cc1ccc(NC2=C(Cl)C(=O)C(Nc3ccc(CN(C)C)cc3)=C(Cl)C2=O)cc1`, for which the IC50 in the experiment listed under Homo sapiens is 100 nM; in the experiment with L1210, 37 nM.
In the case of `CO[C@H](C(=O)[C@@H](O)[C@@H](C)O)[C@@H]1Cc2cc3cc(O[C@H]4C[C@@H](O[C@@H]5C[C@@H](O)[C@H](O)[C@@H](C)O5)[C@H](O)[C@@H](C)O4)c(C)c(O)c3c(O)c2C(=O)[C@H]1O[C@H]1C[C@@H](O[C@@H]2C[C@@H](O)[C@@H](O[C@@H]3C[C@](C)(O)[C@H](O)[C@@H](C)O3)[C@@H](C)O2)[C@H](O)[C@@H](C)O1` [PLICAMYCIN], in the experiment listed under Homo sapiens, the IC50 was 80 nM.
